Here are results for three molecules from paper PMC4385830, “Group I Paks as therapeutic targets in NF2-deficient meningioma” (Oncotarget, 2015).

One data set relates to Arachnoid cell AC07. As to the kind of experiment: Cell viability, MTT assay. The data set is classed as cell-based. Conditions: NF2+/+, 72 hrs. The method, then:
(§1) Cells were plated at 3 × 10^3 cells per well in 96-well plates overnight and treated with various concentrations of Pak inhibitors for 72 hours. Cell viability was measured by MTT assay and the half maximal inhibitory concentration (IC50) was calculated.

The next data set concerns Benign Ben-Men-1. In words: Cell viability, MTT assay. Format: cell-based. Conditions: NF2−/−; 72 hrs; MTT. Here is the method: as §1
(Formazan colour is commonly taken as a measure of viable cells.)

The test system of a further data set is Benign MN328. As to the kind of experiment: Cell viability, MTT assay. The following applies: NF2+/+. The data set is classed as cell-based. Here is the method: as §1
In the next data set the test system is Malignant KT21-MG1. In words: Cell viability, MTT assay. Format: cell-based. Conditions: NF2−/−; 72 hrs; MTT. The method, then:
as §1

In the next data set the test system is Malignant MN525. As to the kind of experiment: Cell viability, MTT assay. The data set is classed as cell-based. Conditions: NF2+/+. The method, then:
as §1

The next data set has as its system Ben-Men cells. As to the kind of experiment: Immunoblot of signaling pathways. Format: cell-based. Here is the method: (§2) Protein concentration was determined, and equal amount of total proteins were separated by SDS-PAGE. […] GAPDH and β-actin were used as loading control.
(In western blotting, separated proteins are transferred to a membrane and probed.)

The next data set concerns KT21 or Ben-Men cells. In words: Immunoblot of signaling pathways. The data set is classed as cell-based. Here is the method: as §2
In a further data set the test system is KT21 cells. As to the kind of experiment: Immunoblot of signaling pathways. Format: cell-based. Here is the method:
Protein concentration was determined, and equal amount of total proteins were separated by SDS-PAGE. Antibodies used included those for Pak1 (2602), Pak2 (2608), Pak3 (2609), Pak4 (3242), phospho-Pak4-6 (3241), Mek1 (9122), Erk (9102), phospho-Erk1/2 (pThr202/pTyr204; 9101), Akt (9272), phospho-Akt (pThr308; 9275), S6 (2217), phospho-S6 (pSer235/pSer236; 4857), phospho-β-Catenin (pSer675; 4176), and cyclin D1 (2978) from Cell Signaling Technology; β-Catenin (610154) from BD Transduction Laboratories; and phospho-Pak (Ser141; 44940G) and phospho-Mek (Ser298; 44460G) from Invitrogen. GAPDH and β-actin were used as loading control.

The target in the next data set is T1, ABL2 (Arg) (Homo sapiens, UniProt P42684).
T1 construct: purchased Invitrogen (Life Technologies) SelectScreen Z'-LYTE
T1 sequence (P42684 whole entry): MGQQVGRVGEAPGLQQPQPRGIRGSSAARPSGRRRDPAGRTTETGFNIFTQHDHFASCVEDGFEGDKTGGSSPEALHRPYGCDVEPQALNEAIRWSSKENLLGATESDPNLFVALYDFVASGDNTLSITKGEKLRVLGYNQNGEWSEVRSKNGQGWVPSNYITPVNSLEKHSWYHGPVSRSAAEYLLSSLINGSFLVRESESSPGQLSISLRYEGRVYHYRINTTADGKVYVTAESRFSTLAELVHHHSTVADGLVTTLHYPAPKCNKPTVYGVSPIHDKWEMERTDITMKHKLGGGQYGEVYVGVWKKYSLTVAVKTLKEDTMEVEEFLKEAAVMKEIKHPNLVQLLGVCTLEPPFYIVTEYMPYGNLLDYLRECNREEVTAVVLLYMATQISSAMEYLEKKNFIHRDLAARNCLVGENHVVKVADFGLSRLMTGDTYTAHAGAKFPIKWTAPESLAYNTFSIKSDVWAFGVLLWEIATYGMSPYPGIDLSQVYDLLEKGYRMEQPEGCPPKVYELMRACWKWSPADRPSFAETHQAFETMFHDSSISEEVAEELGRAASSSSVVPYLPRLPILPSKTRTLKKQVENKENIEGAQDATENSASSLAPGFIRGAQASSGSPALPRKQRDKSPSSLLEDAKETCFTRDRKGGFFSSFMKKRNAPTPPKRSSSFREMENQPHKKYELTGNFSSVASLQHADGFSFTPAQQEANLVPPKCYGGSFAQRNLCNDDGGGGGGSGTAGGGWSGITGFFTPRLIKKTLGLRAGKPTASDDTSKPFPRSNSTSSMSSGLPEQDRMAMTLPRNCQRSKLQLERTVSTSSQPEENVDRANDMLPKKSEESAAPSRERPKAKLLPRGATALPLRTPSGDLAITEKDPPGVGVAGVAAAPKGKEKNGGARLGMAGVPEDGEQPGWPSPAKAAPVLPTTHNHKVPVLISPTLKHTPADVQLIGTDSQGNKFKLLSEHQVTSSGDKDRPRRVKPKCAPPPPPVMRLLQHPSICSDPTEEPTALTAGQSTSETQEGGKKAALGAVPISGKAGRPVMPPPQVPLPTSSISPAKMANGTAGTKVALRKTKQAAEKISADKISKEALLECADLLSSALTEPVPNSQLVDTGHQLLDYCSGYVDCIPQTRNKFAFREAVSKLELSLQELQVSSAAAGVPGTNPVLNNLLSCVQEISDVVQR
In words: Kinase selectivity, Z'-LYTE. Format: biochemical. The gist of the method: (§3)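 Activity is measured with recombinant enzyme and a peptide whose phosphorylation state governs protease sensitivity; fluorescence distinguishes cleaved from intact peptide.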

Another data set addresses T2, AKT2 (PKB beta) (Homo sapiens, UniProt P31751).
T2 construct: purchased Invitrogen (Life Technologies) SelectScreen Z'-LYTE
In words: Kinase selectivity, Z'-LYTE. The data set is classed as biochemical. In short, it runs like this:
as §3

A further data set concerns the target T3, AMPKA1/B1/G1 (Homo sapiens, UniProt Q13131).
T3 construct: purchased Invitrogen (Life Technologies) SelectScreen Z'-LYTE
As to the kind of experiment: Kinase selectivity, Z'-LYTE. Format: biochemical. In short, it runs like this:
as §3

For another data set, the target named is T4, AMPKA2/B1/G1 (Homo sapiens, UniProt P54646).
T4 construct: purchased Invitrogen (Life Technologies) SelectScreen Z'-LYTE
T4 sequence (P54646 whole entry): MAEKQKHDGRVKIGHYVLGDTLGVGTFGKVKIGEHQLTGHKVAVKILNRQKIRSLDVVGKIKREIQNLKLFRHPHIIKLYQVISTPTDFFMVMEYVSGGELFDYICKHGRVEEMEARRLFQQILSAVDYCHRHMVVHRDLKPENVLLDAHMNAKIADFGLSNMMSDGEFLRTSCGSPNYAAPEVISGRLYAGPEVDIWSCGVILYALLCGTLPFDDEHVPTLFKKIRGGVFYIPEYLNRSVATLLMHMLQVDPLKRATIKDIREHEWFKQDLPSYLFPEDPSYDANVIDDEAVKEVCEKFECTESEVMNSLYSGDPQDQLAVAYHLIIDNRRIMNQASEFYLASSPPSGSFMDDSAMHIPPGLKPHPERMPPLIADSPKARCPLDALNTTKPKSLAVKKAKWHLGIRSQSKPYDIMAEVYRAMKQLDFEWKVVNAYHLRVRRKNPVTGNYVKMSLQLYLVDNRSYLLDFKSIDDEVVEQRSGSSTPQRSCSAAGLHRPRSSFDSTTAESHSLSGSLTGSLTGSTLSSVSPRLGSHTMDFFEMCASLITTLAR
T4 sequence (Q9Y478 whole entry partner): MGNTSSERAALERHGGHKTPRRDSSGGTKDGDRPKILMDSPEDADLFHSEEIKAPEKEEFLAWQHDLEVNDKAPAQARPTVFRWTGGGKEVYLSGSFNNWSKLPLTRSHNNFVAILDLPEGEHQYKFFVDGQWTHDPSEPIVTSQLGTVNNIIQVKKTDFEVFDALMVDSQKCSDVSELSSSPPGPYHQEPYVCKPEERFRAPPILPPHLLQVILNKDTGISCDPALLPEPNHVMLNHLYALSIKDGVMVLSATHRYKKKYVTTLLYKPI
T4 sequence (P54619 whole entry partner): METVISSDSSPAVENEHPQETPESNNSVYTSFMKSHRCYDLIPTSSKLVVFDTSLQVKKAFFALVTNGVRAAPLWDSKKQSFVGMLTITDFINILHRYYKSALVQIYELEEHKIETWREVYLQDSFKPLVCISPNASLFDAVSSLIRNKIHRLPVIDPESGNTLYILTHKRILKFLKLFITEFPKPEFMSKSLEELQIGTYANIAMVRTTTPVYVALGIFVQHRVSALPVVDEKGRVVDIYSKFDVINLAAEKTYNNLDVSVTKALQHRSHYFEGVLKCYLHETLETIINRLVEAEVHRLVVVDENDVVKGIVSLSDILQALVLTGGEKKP
As to the kind of experiment: Kinase selectivity, Z'-LYTE. Format: biochemical. In short, it runs like this:
as §3

Another data set deals with T5, CDK6/p25 (Homo sapiens, UniProt Q00535).
T5 construct: purchased Invitrogen (Life Technologies) SelectScreen Z'-LYTE
In words: Kinase selectivity, Z'-LYTE. Format: biochemical. In short, it runs like this: as §3

In another data set the target is T6, DYRK1B (Homo sapiens, UniProt Q9Y463).
T6 construct: purchased Invitrogen (Life Technologies) SelectScreen Z'-LYTE
T6 sequence (Q9Y463 whole entry): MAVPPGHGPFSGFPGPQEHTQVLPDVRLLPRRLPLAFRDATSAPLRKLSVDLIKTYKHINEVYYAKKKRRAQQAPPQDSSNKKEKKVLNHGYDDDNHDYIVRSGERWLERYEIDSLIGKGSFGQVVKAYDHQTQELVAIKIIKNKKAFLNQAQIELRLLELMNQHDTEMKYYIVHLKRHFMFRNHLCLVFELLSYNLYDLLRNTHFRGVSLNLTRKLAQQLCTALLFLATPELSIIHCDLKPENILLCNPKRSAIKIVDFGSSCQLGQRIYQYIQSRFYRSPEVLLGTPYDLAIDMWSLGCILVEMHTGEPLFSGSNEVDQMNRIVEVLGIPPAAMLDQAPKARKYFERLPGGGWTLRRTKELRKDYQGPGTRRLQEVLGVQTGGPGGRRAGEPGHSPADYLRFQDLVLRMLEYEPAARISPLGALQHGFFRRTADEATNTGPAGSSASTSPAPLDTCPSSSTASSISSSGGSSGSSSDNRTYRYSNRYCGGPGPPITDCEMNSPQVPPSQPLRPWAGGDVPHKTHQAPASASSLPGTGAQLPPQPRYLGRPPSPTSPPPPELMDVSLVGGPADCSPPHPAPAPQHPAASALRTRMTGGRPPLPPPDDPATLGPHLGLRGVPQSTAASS
As to the kind of experiment: Kinase selectivity, Z'-LYTE. The data set is classed as biochemical. The gist of the method: as §3

The next data set deals with T7, NTRK1 (TRKA) (Homo sapiens, UniProt P04629).
T7 construct: purchased Invitrogen (Life Technologies) SelectScreen Z'-LYTE
T7 sequence (P04629 33-796): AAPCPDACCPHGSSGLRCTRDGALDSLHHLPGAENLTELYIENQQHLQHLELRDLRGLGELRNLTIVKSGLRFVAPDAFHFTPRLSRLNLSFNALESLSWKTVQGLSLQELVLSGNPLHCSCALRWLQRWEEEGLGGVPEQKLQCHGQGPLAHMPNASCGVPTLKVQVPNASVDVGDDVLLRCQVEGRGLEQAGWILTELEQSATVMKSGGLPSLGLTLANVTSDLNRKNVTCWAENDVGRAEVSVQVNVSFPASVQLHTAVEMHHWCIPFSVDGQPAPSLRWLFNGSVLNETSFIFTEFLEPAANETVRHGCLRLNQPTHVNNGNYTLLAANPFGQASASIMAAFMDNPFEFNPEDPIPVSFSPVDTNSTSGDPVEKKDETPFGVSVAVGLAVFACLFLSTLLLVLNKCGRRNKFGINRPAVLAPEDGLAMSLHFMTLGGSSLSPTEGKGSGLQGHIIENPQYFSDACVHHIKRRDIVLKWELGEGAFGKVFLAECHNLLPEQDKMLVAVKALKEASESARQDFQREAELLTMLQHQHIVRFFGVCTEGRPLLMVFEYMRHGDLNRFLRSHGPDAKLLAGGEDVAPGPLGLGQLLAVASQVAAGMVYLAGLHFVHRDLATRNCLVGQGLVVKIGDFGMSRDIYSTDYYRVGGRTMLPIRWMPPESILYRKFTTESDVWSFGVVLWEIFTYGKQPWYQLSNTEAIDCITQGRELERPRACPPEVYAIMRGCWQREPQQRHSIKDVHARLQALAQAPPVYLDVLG
As to the kind of experiment: Kinase selectivity, Z'-LYTE. Format: biochemical. In short, it runs like this:
as §3

The target in data set [1] is T8, Pak1 (Homo sapiens, UniProt Q13153). As to the kind of experiment: Kinase selectivity, Z'-LYTE. The data set is classed as biochemical. In short, it runs like this: as §3
T8 sequence (Q13153 whole entry): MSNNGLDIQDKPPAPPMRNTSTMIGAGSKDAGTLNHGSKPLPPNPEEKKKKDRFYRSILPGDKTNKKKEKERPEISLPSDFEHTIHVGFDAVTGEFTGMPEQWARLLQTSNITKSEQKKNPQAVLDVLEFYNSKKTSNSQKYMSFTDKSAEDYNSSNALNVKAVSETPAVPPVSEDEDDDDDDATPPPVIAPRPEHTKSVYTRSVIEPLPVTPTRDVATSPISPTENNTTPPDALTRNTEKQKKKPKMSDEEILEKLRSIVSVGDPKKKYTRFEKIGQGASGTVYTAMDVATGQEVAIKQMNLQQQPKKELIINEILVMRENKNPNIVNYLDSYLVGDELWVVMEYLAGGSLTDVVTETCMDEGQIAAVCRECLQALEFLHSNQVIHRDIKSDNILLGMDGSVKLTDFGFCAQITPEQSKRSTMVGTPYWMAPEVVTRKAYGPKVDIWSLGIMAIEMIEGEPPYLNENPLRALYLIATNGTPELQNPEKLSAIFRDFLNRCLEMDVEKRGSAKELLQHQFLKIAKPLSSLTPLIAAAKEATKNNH
The target in data set [2] is T8, Pak1. In words: Pak1 inhibition in vitro. Conditions: read-out: IC50 values towards Pak1. Format: biochemical.
In a further data set the target is T9, CDK2/cyclin A (Homo sapiens, UniProt P24941).
T9 construct: purchased Invitrogen (Life Technologies) SelectScreen Z'-LYTE
As to the kind of experiment: Kinase selectivity, Z'-LYTE. Format: biochemical. In short, it runs like this:
as §3

Another data set concerns the target T10, RET (Homo sapiens, UniProt P07949).
T10 construct: purchased Invitrogen (Life Technologies) SelectScreen Z'-LYTE
In words: Kinase selectivity, Z'-LYTE. The data set is classed as biochemical. The gist of the method: as §3

The test system of data set [3] is KT21-MG1-Luc5D intracranial xenografts. In words: Orthotopic meningioma model, bioluminescence imaging. Conditions: for loss of body weight compared with control littermates: SCID mice bearing KT21.
Description: Eight-week-old SCID mice were anesthetized with ketamine and their heads were stabilized in a small animal stereotaxic instrument. A midline sagittal incision was made on the cranial skin. A burr hole was drilled in the skull with coordinated 1.5 mm anterior and 1.5 mm lateral to the right from the bregma and a 5-μl Hamilton syringe loaded with cells was slowly inserted through the burr hole and ~0.5 mm downward to the skull base. The incision was closed using surgical absorbable gut suture.
Mice transplanted with meningioma cells were imaged using Xenogen IVIS Spectrum (Caliper, MA). Mice were injected intraperitoneally with Rediject D-Luciferin Ultra at 150 mg/kg under anesthetized with isofluorane. Luciferase activity was measured and all bioluminescence imaging was conducted when perk signal was reached. Once tumors were established (~3 weeks post-transplantation), mice were divided into groups for shRNA studies or drug treatments.
For drugs treatment, mice were dosed with Pak inhibitors daily for 14–21 days and tumor growth was monitored every week by BLI. Mean luminescence for each treatment groups (n = 5) was calculated as described previously.
The target of a further data set is T11, RSK3 (Homo sapiens, UniProt Q15349).
T11 construct: purchased Invitrogen (Life Technologies) SelectScreen Z'-LYTE
In words: Kinase selectivity, Z'-LYTE. The data set is classed as biochemical. The gist of the method:
as §3

In another data set the target is T12, RSK4 (Homo sapiens, UniProt Q9UK32).
T12 construct: purchased Invitrogen (Life Technologies) SelectScreen Z'-LYTE
In words: Kinase selectivity, Z'-LYTE. Format: biochemical. The gist of the method: as §3

Where [4] appears, read: inhibitors at IC50 concentration.

Where only a bound is given, the exact number is not on record here.

T2 sequence (P31751 whole entry): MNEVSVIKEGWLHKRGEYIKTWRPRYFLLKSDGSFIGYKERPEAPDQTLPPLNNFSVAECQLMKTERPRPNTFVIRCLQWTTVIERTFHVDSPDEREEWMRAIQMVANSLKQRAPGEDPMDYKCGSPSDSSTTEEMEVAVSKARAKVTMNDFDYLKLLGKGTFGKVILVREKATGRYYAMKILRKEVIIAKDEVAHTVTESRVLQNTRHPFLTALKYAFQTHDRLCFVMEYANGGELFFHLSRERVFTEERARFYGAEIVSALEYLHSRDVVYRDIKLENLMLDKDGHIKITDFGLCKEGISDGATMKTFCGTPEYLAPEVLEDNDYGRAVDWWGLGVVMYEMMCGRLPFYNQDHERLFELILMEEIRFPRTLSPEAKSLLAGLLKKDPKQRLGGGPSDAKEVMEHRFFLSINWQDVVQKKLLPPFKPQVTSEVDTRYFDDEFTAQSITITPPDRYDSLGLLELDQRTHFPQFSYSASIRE

As a reminder, the IC50 is the midpoint of a concentration-inhibition curve. As to `Cc1nc(Nc2[nH]nc3c2CN(C(=O)N[C@H](CN(C)C)c2ccccc2)C3(C)C)c2sccc2n1` [PF3758309, reference compound], the IC50 with Arachnoid cell AC07 was 1.38 µM; with Benign Ben-Men-1 it was 0.0293 µM; in the data set on Benign MN328 (72 h), 3.4 µM; in the data set on Benign MN328 (72 hrs), 3.43 µM; in the data set with Malignant KT21-MG1 it was 0.376 µM; in the data set on Malignant MN525 (72 h) it was 5.3 µM. Further, half-maximal inhibition in the data set on Malignant MN525 (72 hrs) (IC50) was put at 5.32 µM. Moreover, in the data set on Ben-Men cells, the “basal level (expression) of β-catenin” value is recorded as “induction”. For the same molecule, the “activity of Akt” value in the data set with KT21 or Ben-Men cells (either cell type) is listed as “did not influence”. Besides, the Erk activity result in the data set with KT21 or Ben-Men cells (setting [4]) is on record as “decrease”. Further, the “phosphorylation of Pak and Mek1 (at Ser298)” value (“phosphorylation … (at Ser298)” below) in the data set with KT21 or Ben-Men cells (setting [4]) is on record as “dramatically inhibited”. For the same molecule, the “total and phospho-protein levels of β-catenin” value in the data set with KT21 cells is recorded as “only reduction on phosphorylation status”. For the same molecule, the “% inhibition of activity” value was found to be 77% on ABL2 (Arg); 0% on AKT2 (PKB beta); 100% on AMPKA1/B1/G1; 100% at AMPKA2/B1/G1; 18% on CDK6/p25; 7% at DYRK1B. Moreover, the “% inhibition of activity” value on NTRK1 (TRKA) was 73%; at Pak1 [1], 100%.
With `CCn1c(=O)c(-c2ccc(-c3noc(C)n3)cc2Cl)cc2cnc(Nc3ccc(C4CCN(C)CC4)cc3)nc21` [Frax716], the IC50 was determined as 0.002 µM on Pak1 [2]; 0.288 µM in the data set on Arachnoid cell AC07; 0.218 µM in the data set on Benign Ben-Men-1; 0.718 µM in the data set on Benign MN328 (72 hrs); 1.1 µM with Malignant KT21-MG1; 0.494 µM in the data set with Malignant MN525 (72 hrs). For the same molecule, the “basal level (expression) of β-catenin” value with Ben-Men cells is recorded as “did not impact”. Further, the “phosphorylation of β-catenin” value in the data set on Ben-Men cells is reported as “diminished”. The “phosphorylation … (at Ser298)” value in the data set on KT21 or Ben-Men cells (setting [4]) is “dramatically inhibited”. Further, the “% inhibition of activity” value at ABL2 (Arg) is recorded as 82%; on AKT2 (PKB beta), 9%; at AMPKA1/B1/G1, 13%; at AMPKA2/B1/G1, 29%; on CDK2/cyclin A, 0%; on CDK6/p25 it was 3%. Also, the “% inhibition of activity” value was 13% on DYRK1B, 92% on NTRK1 (TRKA), 95% on Pak1 [1] and 91% on RET. Further, in [3] (oral gavage 20 mg/kg/day), the “loss of body weight compared with control littermates” value is reported as more than 10%. The reduction on bioluminescence in data set [3] (SCID mice, KT21, oral gavage 20 mg/kg/day, 2 weeks, P = 0.028) is listed as 60%.
On to `CCn1c(=O)c(-c2ccc(-c3cncc(C)n3)cc2Cl)cc2cnc(NCCC3CCN(C)CC3)nc21` [Frax1036], for which the IC50 turned out to be 1.24 µM in the data set on Arachnoid cell AC07; 1.89 µM with Benign Ben-Men-1; 4.24 µM with Benign MN328 (72 hrs); 1.99 µM in the data set with Malignant KT21-MG1; 3.3 µM in the data set with Malignant MN525 (72 hrs). In the data set with Ben-Men cells, the “basal level (expression) of β-catenin” value is reported as “induction”. Besides, the “phosphorylation … (at Ser298)” value in the data set on KT21 or Ben-Men cells (setting [4]) is “nearly abolished”. The “% inhibition of activity” value on CDK2/cyclin A is given as −14%; at RET, 8%; at RSK3 it was 26%; at RSK4, 9%. Also, the “loss of body weight compared with control littermates” value in data set [3] (Frax597 90 mg/kg/day, Frax1036 30 mg/kg/day, oral gavage) is on record as “not seen”. The “reduction in BMI signals” value in [3] (SCID mice, KT21, oral gavage 30 mg/kg/day, 2 weeks, P = 0.042) was determined as 37%.
